Holding throughout (type): in vivo
Experiment [1] deals with ryegrass, Italian (Italian ryegrass, Lolium multiflorum). Nature of the experiment: Test A postemergence. The following applies: Lolium multiflorum, post-emergence, 240 h, postemergence. The essentials: (§1)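 Ratings of 0 (no effect) to 100 (complete control) come from visual comparison with untreated controls roughly 10 d after treatment. Test chemicals, formulated in a non-phytotoxic solvent mixture with surfactant, were applied either as a preemergence directed soil spray on seeded soil or postemergence to one- to two-leaf plants 2 to 10 cm tall.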

For experiment [2], the system named is barnyardgrass (Echinochloa crus-galli). Nature of the experiment: Test A postemergence. The following applies: Echinochloa crus-galli, post-emergence, 240 h, postemergence. Summed up: as §1
Experiment [3] concerns pigweed (Amaranthus retroflexus). Nature of the experiment: Test A postemergence. The following applies: Amaranthus retroflexus, post-emergence, 240 h, postemergence. Summed up:
as §1

The test system of experiment [4] is giant foxtail (Setaria faberii). In words: Test A postemergence. The following applies: Setaria faberi, post-emergence, 240 h, postemergence. The essentials:
as §1

Experiment [5] concerns sedge, umbrella (small-flower umbrella sedge, Cyperus difformis). Nature of the experiment: Test B flooded paddy test. The settings on record: Cyperus difformis, 250 g ai/ha, Flood; 0 to 100 scale where 0 is no effect and 100 is complete control; read-out: Sedge, Umbrella plant response rating. The essentials: (§2)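 Compound goes directly into floodwater once pots are flooded 3 cm above soil, targeting plants at two leaves; the water depth is then held for the test duration. Plants sit 13–15 d in a greenhouse and are rated visually, 100 denoting complete control.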

For experiment [6], the system named is ducksalad (Heteranthera limosa). Nature of the experiment: Test B flooded paddy test. The following applies: Heteranthera limosa, 250 g ai/ha, Flood; 0 to 100 scale where 0 is no effect and 100 is complete control; read-out: Ducksalad plant response rating. Summed up: as §2
Experiment [7] concerns barnyardgrass (Echinochloa crus-galli). In words: Test B flooded paddy test. The following applies: Echinochloa crus-galli, 250 g ai/ha, Flood; 0 to 100 scale where 0 is no effect and 100 is complete control; read-out: Barnyardgrass plant response rating. The essentials: as §2
Another experiment has as its system rice (Oryra sativa). In words: Test B flooded paddy test. The following applies: Oryza sativa, 250 g ai/ha, Flood; 0 to 100 scale where 0 is no effect and 100 is complete control; read-out: Rice plant response rating. Summed up: as §2
Experiment [8] deals with ryegrass, Italian (Italian ryegrass, Lolium multiflorum). Nature of the experiment: Test A preemergence. The following applies: Lolium multiflorum, pre-emergence, 240 h, preemergence, 0 to 100 scale where 0 is no effect and 100 is complete control, read-out: Ryegrass, Italian plant response rating. Summed up:
as §1

Experiment [9] concerns barnyardgrass (Echinochloa crus-galli). Nature of the experiment: Test A preemergence. The following applies: Echinochloa crus-galli, pre-emergence, 240 h, preemergence, 0 to 100 scale where 0 is no effect and 100 is complete control, read-out: Barnyardgrass plant response rating. The essentials: as §1
For another experiment, the system named is Kochia (Kochia scoparia). Nature of the experiment: Test A preemergence. The following applies: Bassia scoparia, pre-emergence, 240 h, preemergence, 0 to 100 scale where 0 is no effect and 100 is complete control, read-out: Kochia plant response rating. The essentials:
as §1

The test system of experiment [10] is pigweed (Amaranthus retroflexus). In words: Test A preemergence. The settings on record: Amaranthus retroflexus, pre-emergence, 240 h, preemergence, 0 to 100 scale where 0 is no effect and 100 is complete control, read-out: Pigweed plant response rating.
Experiment [11] concerns ragweed (common ragweed, Ambrosia elatior). Nature of the experiment: Test A preemergence. The settings on record: Ambrosia artemisiifolia, pre-emergence, 240 h, preemergence, 0 to 100 scale where 0 is no effect and 100 is complete control, read-out: Ragweed plant response rating. The essentials: as §1
Experiment [12] concerns giant foxtail (Setaria faberii). Nature of the experiment: Test A preemergence. The settings on record: Setaria faberi, pre-emergence, 240 h, preemergence, 0 to 100 scale where 0 is no effect and 100 is complete control, read-out: Foxtail, Giant plant response rating. Summed up: as §1
The mark [13] stands for this setting: 125 g ai/ha, visual injury rating, approximately 10 d.

Structures are written as SMILES.

Among the data in patent publication US12077503B2, “Substituted cyclic amides and their use as herbicides” (FMC CORPORATION, priority 2015, dated 2024) are pest or weed control values, retold here.

As to `Cc1ccc([C@H]2CCN(C)C(=O)[C@@H]2C(=O)Nc2cccc(F)c2F)cc1` [Compound 1220], the pest or weed control at 125 g/ha in [1] (125 g ai/ha, visual injury vs untreated controls after approx. 10 d, 0 = no effect, 100 = complete control, read-out: Ryegrass, Italian plant response rating (0 to 100 scale)) worked out at 20%; in [2] (125 g ai/ha, visual injury vs untreated controls after approx. 10 d, 0 = no effect, 100 = complete control, read-out: Barnyardgrass plant response rating (0 to 100 scale)) it was 70%; in [3] (125 g ai/ha, visual injury vs untreated controls after approx. 10 d, 0 = no effect, 100 = complete control, read-out: Pigweed plant response rating (0 to 100 scale)), 20%; in experiment [4] (125 g ai/ha, visual injury vs untreated controls after approx. 10 d, 0 = no effect, 100 = complete control, read-out: Foxtail, Giant plant response rating (0 to 100 scale)) it was 80%; in [8] (setting [13]), 30%; in experiment [9] (setting [13]), 90%. For the same compound, the pest or weed control at 125 g/ha with Kochia (Kochia scoparia) (setting [13]) is 40%; in [10] (setting [13]), 20%; in [11] (setting [13]), 30%; in [12] (setting [13]) it was 90%. For the same compound, the pest or weed control at 500 g/ha was found to be 30% in experiment [1] (500 g ai/ha, 0 to 100 scale, 0 is no effect, 100 is complete control, read-out: Ryegrass, Italian plant response rating); 80% in [2] (500 g ai/ha, 0 to 100 scale, 0 is no effect, 100 is complete control, read-out: Barnyardgrass plant response rating); 20% in experiment [3] (500 g ai/ha, 0 to 100 scale, 0 is no effect, 100 is complete control, read-out: Pigweed plant response rating); 80% in experiment [4] (500 g ai/ha, 0 to 100 scale, 0 is no effect, 100 is complete control, read-out: Foxtail, Giant plant response rating); 50% in experiment [8] (500 g ai/ha); 90% in experiment [9] (500 g ai/ha). The pest or weed control at 500 g/ha in the experiment on Kochia (Kochia scoparia) (500 g ai/ha) is 50%; in experiment [10] (500 g ai/ha), 40%; in experiment [11] (500 g ai/ha), 40%; in experiment [12] (500 g ai/ha) it was 90%. Besides, the pest or weed control at 250 g/ha in experiment [5] is 0%; in experiment [6] it was 95%; in [7] it was 70%; with rice (Oryra sativa) it was 10%.
